Drawing on PubChem BioAssay (NCI), this text covers GI50 and TGI for 22 molecules.

The structures appear in SMILES notation.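 Compound exposure: 48 hours, 5 concentrations, 96-well plates. GI50: concentration for 50% inhibition of growth. TGI: concentration producing complete growth inhibition.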 Where only a bound is given, the exact number is not on record here.

One assay deals with A549 NSCLC. As to the kind of experiment: DTP human tumour cell line panel, 48 h.
For `CSc1nc2nc(-c3ccccc3)c(C)c-2c2n1C(C)C(=O)N2` (stereo not drawn), the GI50 was 40.1 µM and the TGI was above 100 µM.

For `CC(=O)Nc1ccc(C2CC(c3ccc([N+](=O)[O-])cc3)=Nc3ccccc3S2=O)cc1` (stereo not drawn), the total growth inhibition concentration (TGI) is above 100 µM.

As for `COc1ccccc1Oc1nccc(-c2c(-c3ccc(F)cc3)ncn2C2CCNCC2)n1`, the GI50 was above 25 µM and the TGI was above 25 µM.

On to `COc1cc(/C=C2\NC(=O)C(Cc3cc(OC)c(OC)c(C)c3OC)N(C(C)=O)C2=O)c(OC)c(C)c1OC` (stereo not drawn), for which the TGI is above 100 µM.

For the molecule `COc1cc(C(=O)/C=C/c2cccc(Nc3ccnc4cc(Cl)ccc34)c2)cc(OC)c1OC`, the GI50 was 1.48 µM and the TGI worked out at 3.91 µM.

With `O=C1N[C@@H]2CCCC[C@@H]2C12CCCCC2`, the TGI is above 100 µM.

In the case of `C#Cc1ccc(-n2c(/C=C/c3ccc(O)cc3)nc3ncccc3c2=O)cc1`, the GI50 is 4.74 µM and the TGI was above 100 µM.

`O=C(NCCc1ccccc1)C1C(=O)C(=O)N(CCc2ccccc2)C1=O` (stereo not drawn): the TGI was above 100 µM.

As to `CCOC(=O)C1S(=O)(=O)OCCOS1(=O)=O`, the TGI was above 100 µM.

The molecule `O=[N+]([O-])c1ccc(-c2ccc(C3=Nn4c(CNc5ccccc5Cl)nnc4SC3)o2)cc1` registered a TGI above 100 µM.

Molecule `CCCC(=O)CC(C)C(=O)C(=O)NC12CC3CC(CC(C3)C1)C2` (stereo not drawn) came in with a TGI above 100 µM.

On to `CC(=O)OCC(=O)[C@@]1(O)CC[C@H]2[C@@H]3C[C@H](C)C4=CC(=O)C=C[C@]4(C)[C@@]3(F)[C@@H](O)C[C@@]21C`, for which the TGI is above 100 µM.

`Nc1nc(=S)c2c(ncn2CCO)[nH]1` had a TGI above 100 µM.

The molecule `CCCCCC/C=C\CCCCCCCCC(=O)c1cccc(OC)c1OC` gave a TGI above 100 µM.

A further assay deals with OVCAR-4 ovarian. The experiment in a line: DTP human tumour cell line panel, 48 h.
Take `CCOC(=O)C1=C(NC)OCC1=O`: the TGI was above 100 µM.

In turn, `CCOC(=O)C1(C)CCC(C(C(=O)O)C(=O)O)CC1=O` (stereo not drawn) yielded a total growth inhibition concentration (TGI) above 100 µM.

Take `CCc1ccc(Nc2cc(C)c3ccc(O)cc3n2)cc1`: the GI50 was 12.4 µM and the TGI amounted to 30.9 µM.

On to `COc1ccc(Nc2cnc3cc(N)cc(N)c3n2)cc1`, for which the GI50 is 21.4 µM and the TGI stood at 48.5 µM.

In the case of `COc1cc(/C=C/c2cc(/C=C/c3ccc(O)c(OC)c3)n(C(=O)c3ccccc3Br)n2)ccc1O`, the GI50 is 3.64 µM and the TGI was determined as 22.8 µM.

As to `O=C1NC(=O)C2C(=O)NC(=O)C1C2Cc1ccco1` (stereo not drawn), the TGI is above 100 µM.

Take `COc1ccccc1CNCCN1C(=O)c2ccc3c4c(ccc(c24)C1=O)C(=O)N(CCNCc1ccccc1OC)C3=O`: the GI50 was 0.132 µM and the TGI stood at 0.261 µM.

With `CSc1nc2nc(-c3ccccc3)c(C)c-2c2n1C(C)C(=O)N2` (stereo not drawn), the GI50 is 40.1 µM and the TGI is above 100 µM.

`CC(=O)Nc1ccc(C2CC(c3ccc([N+](=O)[O-])cc3)=Nc3ccccc3S2=O)cc1` (stereo not drawn) displayed a TGI of 39.8 µM.

For `COc1ccccc1Oc1nccc(-c2c(-c3ccc(F)cc3)ncn2C2CCNCC2)n1`, the GI50 was above 25 µM and the TGI was above 25 µM.

`COc1cc(/C=C2\NC(=O)C(Cc3cc(OC)c(OC)c(C)c3OC)N(C(C)=O)C2=O)c(OC)c(C)c1OC` (stereo not drawn) gave a TGI above 100 µM.

`COc1cc(C(=O)/C=C/c2cccc(Nc3ccnc4cc(Cl)ccc34)c2)cc(OC)c1OC`: the GI50 is 1.26 µM and the TGI worked out at 2.57 µM.

Molecule `O=C1N[C@@H]2CCCC[C@@H]2C12CCCCC2` registered a TGI above 100 µM.

For `C#Cc1ccc(-n2c(/C=C/c3ccc(O)cc3)nc3ncccc3c2=O)cc1`, the GI50 was 22.8 µM and the TGI was above 100 µM.

Turning to `CCOC(=O)C1S(=O)(=O)OCCOS1(=O)=O`, the TGI was above 100 µM.

As for `CCCC(=O)CC(C)C(=O)C(=O)NC12CC3CC(CC(C3)C1)C2` (stereo not drawn), the TGI is above 100 µM.

For the molecule `CC(=O)OCC(=O)[C@@]1(O)CC[C@H]2[C@@H]3C[C@H](C)C4=CC(=O)C=C[C@]4(C)[C@@]3(F)[C@@H](O)C[C@@]21C`, the concentration for total growth inhibition (TGI) is above 100 µM.

`Nc1nc(=S)c2c(ncn2CCO)[nH]1` registered a total growth inhibition concentration (TGI) above 100 µM.

Another assay has as its system OVCAR-8 ovarian. The experiment in a line: DTP human tumour cell line panel, 48 h.
In turn, `CCOC(=O)C1=C(NC)OCC1=O` gave a concentration for total growth inhibition (TGI) above 100 µM.

With `CCOC(=O)C1(C)CCC(C(C(=O)O)C(=O)O)CC1=O` (stereo not drawn), the TGI was above 100 µM.

On to `CCc1ccc(Nc2cc(C)c3ccc(O)cc3n2)cc1`, for which the GI50 was 10.8 µM and the TGI came to 35.3 µM.

For the molecule `COc1ccc(Nc2cnc3cc(N)cc(N)c3n2)cc1`, the GI50 was 14.1 µM and the TGI stood at 29.4 µM.

Consider `COc1cc(/C=C/c2cc(/C=C/c3ccc(O)c(OC)c3)n(C(=O)c3ccccc3Br)n2)ccc1O`, for which the GI50 is 2.75 µM and the TGI turned out to be 12.4 µM.

`O=C1NC(=O)C2C(=O)NC(=O)C1C2Cc1ccco1` (stereo not drawn) yielded a TGI above 100 µM.

For the molecule `S=C1SCN(Cc2ccccc2)CN1Cc1ccco1`, the GI50 was 5.71 µM and the TGI was found to be 32 µM.

As to `COc1ccccc1CNCCN1C(=O)c2ccc3c4c(ccc(c24)C1=O)C(=O)N(CCNCc1ccccc1OC)C3=O`, the GI50 is 0.215 µM and the TGI was 0.505 µM.

With `CSc1nc2nc(-c3ccccc3)c(C)c-2c2n1C(C)C(=O)N2` (stereo not drawn), the GI50 was 45.7 µM and the TGI is above 100 µM.

Turning to `CC(=O)Nc1ccc(C2CC(c3ccc([N+](=O)[O-])cc3)=Nc3ccccc3S2=O)cc1` (stereo not drawn), the TGI is 89.2 µM.

`COc1ccccc1Oc1nccc(-c2c(-c3ccc(F)cc3)ncn2C2CCNCC2)n1`: the GI50 is above 25 µM and the TGI was above 25 µM.

Molecule `COc1cc(/C=C2\NC(=O)C(Cc3cc(OC)c(OC)c(C)c3OC)N(C(C)=O)C2=O)c(OC)c(C)c1OC` (stereo not drawn) registered a TGI above 100 µM.

With `COc1cc(C(=O)/C=C/c2cccc(Nc3ccnc4cc(Cl)ccc34)c2)cc(OC)c1OC`, the GI50 is 0.524 µM and the TGI amounted to 2.12 µM.

For the molecule `O=C1N[C@@H]2CCCC[C@@H]2C12CCCCC2`, the concentration for total growth inhibition (TGI) was above 100 µM.

As to `C#Cc1ccc(-n2c(/C=C/c3ccc(O)cc3)nc3ncccc3c2=O)cc1`, the GI50 was 4.39 µM and the TGI is 47 µM.

The term GI50 denotes the concentration that inhibits growth by half. Broadly, the TGI is the concentration at which net growth stops. Low values mean more potent growth arrest, high ones less potent growth arrest.
